Results reported in the supplement of paper PMC6965134.
± gives the standard deviation of the averaged measurements.

Assay: TIMS collisional cross section (CCS, N2) of the lipid ion; higher = larger ion cross section
Conditions: ionization mode: positive, one isomer drawn

Question: With `CC/C=C\C/C=C\C/C=C\C/C=C\C/C=C\C/C=C\CCC(=O)O[C@H](CO)COP(=O)(O)OCCN` [LPE 22:6] (ion (formula + adduct): [C27H44NO7P+H] 1+) as the molecule, how does the “TIMS collisional cross section” value (sample type: plasma) read?
Answer: 217.7 Å²

Question: With `CC/C=C\C/C=C\C/C=C\C/C=C\C/C=C\C/C=C\CCC(=O)OC[C@@H](O)COP(=O)(O)OCCN` [LPE 22:6] (ion (formula + adduct): [C27H44NO7P+H] 1+) as the molecule, how does the “TIMS collisional cross section” value (sample type: HeLa) read?
Answer: 218.95 ± 0.071 Å²

Question: And the “TIMS collisional cross section” value (sample type: Liver)?
Answer: 218 Å²

Question: What about the “TIMS collisional cross section” value (sample type: plasma) of the same molecule?
Answer: 218.3 ± 0.85 Å²

Question: For `CCCCC/C=C\C/C=C\CCCCCCCCCC(=O)OC[C@@H](O)COP(=O)(O)OC[C@@H](O)CO` [LPG 20:2] (ion (formula + adduct): [C26H49O9P+H] 1+), which “TIMS collisional cross section” value (sample type: Liver) is on record?
Answer: 230.1 Å²

Question: With `CCCCCCCCCCCCCCCCCC(=O)OC[C@@H](O)COP(=O)(O)O[C@H]1C(O)C(O)C(O)[C@@H](O)C1O` (some centres not stated) [LPI 18:0] (ion (formula + adduct): [C27H53O12P+H] 1+) as the molecule, how does the “TIMS collisional cross section” value (sample type: HeLa) read?
Answer: 248.8 Å²

Question: What about the “TIMS collisional cross section” value (sample type: Liver) of the same molecule?
Answer: 249.1 Å²

Question: And the “TIMS collisional cross section” value (sample type: plasma)?
Answer: 248.8 Å²

Question: Which “TIMS collisional cross section” value (sample type: plasma) does the source give for `CCCCC/C=C\C/C=C\CCCCCCCC(=O)OC[C@@H](O)COP(=O)(O)O[C@H]1C(O)C(O)C(O)[C@@H](O)C1O` (some centres not stated) [LPI 18:2_0:0] (ion (formula + adduct): [C27H49O12P+H] 1+) here?
Answer: 243 Å²

Question: For `CCCCCCCCCCCCCCCCCC(=O)OC[C@@H](O)COP(=O)(O)OC[C@H](N)C(=O)O` [LPS 18:0] (ion (formula + adduct): [C24H48NO9P+H] 1+), which “TIMS collisional cross section” value (sample type: HeLa) is on record?
Answer: 229.2 Å²

Question: And the “TIMS collisional cross section” value (sample type: Liver)?
Answer: 229.2 Å²

Question: With `CCCCC/C=C\C/C=C\C/C=C\C/C=C\CCCC(=O)OC[C@@H](O)COP(=O)(O)OC[C@H](N)C(=O)O` [LPS 20:4] (ion (formula + adduct): [C26H44NO9P+H] 1+) as the molecule, how does the “TIMS collisional cross section” value (sample type: Liver) read?
Answer: 221.9 Å²

Question: What does the source list for `OC[C@]([H])(OC(CCC/C=C\C/C=C\C/C=C\C/C=C\CCCCC)=O)CO` [MG 0:0_20:4_0:0] (ion (formula + adduct): [C23H38O4+H] 1+)?
Answer: TIMS collisional cross section (sample type: Liver): 195.7 Å²; TIMS collisional cross section (sample type: plasma): 197.1 Å²

Question: With `CCCCC/C=C\C[C@H](O)/C=C/C=C\C/C=C\CCCC(=O)O[C@H](COC(=O)CCCCCCCCCCCCCCC)COP(=O)([O-])OCC[N+](C)(C)C` [Oxidized PC 16:0@_20:4] (ion (formula + adduct): [C44H80NO9P+H] 1+) as the molecule, how does the “TIMS collisional cross section” value (sample type: plasma) read?
Answer: 289.9 ± 0.36 Å²

Question: Which results are given for `CCCCCCCCCCCCCCCC(=O)OC[C@H](COP(=O)([O-])OCC[N+](C)(C)C)OC(=O)CCCC=O` [Oxidized PC 16:0_5:0@] (ion (formula + adduct): [C29H56NO9P+H] 1+)?
Answer: TIMS collisional cross section (sample type: Liver): 245.3 Å²; TIMS collisional cross section (sample type: plasma): 245.55 ± 0.35 Å²

Question: For `CCCCCCCCCCCCCCCC(=O)OC[C@H](COP(=O)([O-])OCC[N+](C)(C)C)OC(=O)CCCCCCCC=O` [Oxidized PC 16:0_9:0@] (ion (formula + adduct): [C33H64NO9P+H] 1+), which “TIMS collisional cross section” value (sample type: HeLa) is on record?
Answer: 257.85 ± 1.6 Å²

Question: And the “TIMS collisional cross section” value (sample type: plasma)?
Answer: 257 ± 0.14 Å²

Question: With `CCCCC/C=C\C[C@H](O)/C=C/C=C\C/C=C\CCCC(=O)O[C@H](COC(=O)CCCCCCCCCCCCCCC)COP(=O)([O-])OCC[N+](C)(C)C` [Oxidized PC 16:0_20:4@] (ion (formula + adduct): [C44H80NO9P+H] 1+) as the molecule, how does the “TIMS collisional cross section” value (sample type: Liver) read?
Answer: 290.3 Å²

Question: Which “TIMS collisional cross section” value (sample type: plasma) does the source give for `CCCCC/C=C\C[C@H](O)/C=C/C=C\C/C=C\CCCC(=O)O[C@H](COC(=O)CCCCCCCCCCCCCCCCC)COP(=O)([O-])OCC[N+](C)(C)C` [Oxidized PC 18:0@_20:4] (ion (formula + adduct): [C46H84NO9P+H] 1+) here?
Answer: 297.15 ± 0.92 Å²

Question: Which “TIMS collisional cross section” value (sample type: plasma) does the source give for `CCCCC/C=C\C[C@H](O)/C=C/C=C\C/C=C\CCCC(=O)O[C@H](COC(=O)CCCCCCCCCCCCCCCCC)COP(=O)([O-])OCC[N+](C)(C)C` [Oxidized PC 18:0_20:4] (ion (formula + adduct): [C46H84NO9P+H] 1+) here?
Answer: 296.7 Å²

Question: With `CCCCCCCCCCCCCCCCCC(=O)O[C@H](COC(=O)CCCCCCC)COP(=O)([O-])OCC[N+](C)(C)C` [PC 8:0_18:0@] (ion (formula + adduct): [C34H68NO8P+H] 1+) as the molecule, how does the “TIMS collisional cross section” value (sample type: Liver) read?
Answer: 265.4 Å²

Question: Which “TIMS collisional cross section” value (sample type: HeLa) does the source give for `CCCCCCCCCCCCCC(=O)O[C@H](COC(=O)CCCCCCCCCCC)COP(=O)([O-])OCC[N+](C)(C)C` [PC 12:0@_14:0] (ion (formula + adduct): [C34H68NO8P+H] 1+) here?
Answer: 266.9 Å²

Question: With `CCCCCCCCCCCCCCC(=O)O[C@H](COC(=O)CCCCCCCCCCC)COP(=O)([O-])OCC[N+](C)(C)C` [PC 12:0_15:0@] (ion (formula + adduct): [C35H70NO8P+H] 1+) as the molecule, how does the “TIMS collisional cross section” value (sample type: plasma) read?
Answer: 269.3 Å²

Question: For `CCCCCCCCCCCCCCC(=O)O[C@H](COC(=O)CCCCCCCCCCCCC)COP(=O)([O-])OCC[N+](C)(C)C` [PC 14:0@_15:0] (ion (formula + adduct): [C37H74NO8P+H] 1+), which “TIMS collisional cross section” value (sample type: HeLa) is on record?
Answer: 276.1 Å²

Question: For `CCCCCCCCCCCCCCCC(=O)O[C@H](COC(=O)CCCCCCCCCCCCC)COP(=O)([O-])OCC[N+](C)(C)C` [PC 14:0@_16:0] (ion (formula + adduct): [C38H76NO8P+H] 1+), which “TIMS collisional cross section” value (sample type: HeLa) is on record?
Answer: 279.2 Å²

Question: For `CC/C=C\C/C=C\C/C=C\CCCCCCCC(=O)O[C@H](COC(=O)CCCCCCCCCCCCC)COP(=O)([O-])OCC[N+](C)(C)C` [PC 14:0@_18:3] (ion (formula + adduct): [C40H74NO8P+H] 1+), which “TIMS collisional cross section” value (sample type: Liver) is on record?
Answer: 277.5 Å²

Question: For `CC/C=C\C/C=C\C/C=C\C/C=C\CCCCC(=O)O[C@H](COC(=O)CCCCCCCCCCCCC)COP(=O)([O-])OCC[N+](C)(C)C` [PC 14:0@_18:4] (ion (formula + adduct): [C40H72NO8P+H] 1+), which “TIMS collisional cross section” value (sample type: HeLa) is on record?
Answer: 278.8 Å²

Question: For `CCCCC/C=C\C/C=C\C/C=C\C/C=C\CCCC(=O)O[C@H](COC(=O)CCCCCCCCCCCCC)COP(=O)([O-])OCC[N+](C)(C)C` [PC 14:0@_20:4] (ion (formula + adduct): [C42H76NO8P+H] 1+), which “TIMS collisional cross section” value (sample type: plasma) is on record?
Answer: 282 Å²

Question: Which “TIMS collisional cross section” value (sample type: plasma) does the source give for `CC/C=C\C/C=C\C/C=C\C/C=C\C/C=C\C/C=C\CCC(=O)O[C@H](COC(=O)CCCCCCCCCCCCC)COP(=O)([O-])OCC[N+](C)(C)C` [PC 14:0@_22:6] (ion (formula + adduct): [C44H76NO8P+H] 1+) here?
Answer: 284.8 Å²

Question: For `CCCCCCCCCCCCCCC(=O)O[C@H](COC(=O)CCCCCCCCCCCCC)COP(=O)([O-])OCC[N+](C)(C)C` [PC 14:0_15:0] (ion (formula + adduct): [C37H74NO8P+H] 1+), which “TIMS collisional cross section” value (sample type: HeLa) is on record?
Answer: 276.3 Å²

Question: Which “TIMS collisional cross section” value (sample type: HeLa) does the source give for `CCCCCCCCCCCCCCCC(=O)O[C@H](COC(=O)CCCCCCCCCCCCC)COP(=O)([O-])OCC[N+](C)(C)C` [PC 14:0_16:0] (ion (formula + adduct): [C38H76NO8P+H] 1+) here?
Answer: 280.6 Å²

Question: With `CCCCCC/C=C\CCCCCCCC(=O)O[C@H](COC(=O)CCCCCCCCCCCCC)COP(=O)([O-])OCC[N+](C)(C)C` [PC 14:0_16:1@] (ion (formula + adduct): [C38H74NO8P+H] 1+) as the molecule, how does the “TIMS collisional cross section” value (sample type: HeLa) read?
Answer: 276.5 Å²

Question: With `CCCCCC/C=C\CCCCCCCC(=O)O[C@H](COC(=O)CCCCCCCCCCCCC)COP(=O)([O-])OCC[N+](C)(C)C` [PC 14:0_16:1] (ion (formula + adduct): [C38H74NO8P+H] 1+) as the molecule, how does the “TIMS collisional cross section” value (sample type: HeLa) read?
Answer: 275.8 Å²

Question: With `CCC/C=C\C/C=C\CCCCCCCCCC(=O)O[C@H](COC(=O)CCCCCCCCCCCCC)COP(=O)([O-])OCC[N+](C)(C)C` [PC 14:0_18:2] (ion (formula + adduct): [C40H76NO8P+H] 1+) as the molecule, how does the “TIMS collisional cross section” value (sample type: HeLa) read?
Answer: 279.2 Å²

Question: What about the “TIMS collisional cross section” value (sample type: plasma) of the same molecule?
Answer: 278.7 Å²

Question: Which “TIMS collisional cross section” value (sample type: HeLa) does the source give for `CC/C=C\C/C=C\C/C=C\C/C=C\C/C=C\C/C=C\CCC(=O)O[C@H](COC(=O)CCCCCCCCCCCCC)COP(=O)([O-])OCC[N+](C)(C)C` [PC 14:0_22:6@] (ion (formula + adduct): [C44H76NO8P+H] 1+) here?
Answer: 285.3 Å²

Question: Which “TIMS collisional cross section” value (sample type: HeLa) does the source give for `CCCC/C=C\CCCCCCCC(=O)OC[C@H](COP(=O)([O-])OCC[N+](C)(C)C)OC(=O)CCCCCCC/C=C\CCCCCC` [PC 14:1@_16:1] (ion (formula + adduct): [C38H72NO8P+H] 1+) here?
Answer: 272.4 Å²

Question: Which “TIMS collisional cross section” value (sample type: HeLa) does the source give for `CCCC/C=C\CCCCCCCC(=O)OC[C@H](COP(=O)([O-])OCC[N+](C)(C)C)OC(=O)CCCCCCCCCCCCCCCCC` [PC 14:1@_18:0] (ion (formula + adduct): [C40H78NO8P+H] 1+) here?
Answer: 282.3 Å²

Question: Which results are given for `CCCCC/C=C\C/C=C\CCCCCCCC(=O)O[C@H](COC(=O)CCCCCCCCCCCCCC)COP(=O)([O-])OCC[N+](C)(C)C` [PC 15:0@_18:2] (ion (formula + adduct): [C41H78NO8P+H] 1+)?
Answer: TIMS collisional cross section (sample type: Liver): 281 Å²; TIMS collisional cross section (sample type: plasma): 280.9 Å²

Question: Which “TIMS collisional cross section” value (sample type: HeLa) does the source give for `CCCCC/C=C\C/C=C\C/C=C\CCCCC(=O)O[C@H](COC(=O)CCCCCCCCCCCCCC)COP(=O)([O-])OCC[N+](C)(C)C` [PC 15:0@_18:3] (ion (formula + adduct): [C41H76NO8P+H] 1+) here?
Answer: 279.7 Å²

Question: With `CC/C=C\C/C=C\C/C=C\C/C=C\C/C=C\CCCC(=O)O[C@H](COC(=O)CCCCCCCCCCCCCC)COP(=O)([O-])OCC[N+](C)(C)C` [PC 15:0@_20:5] (ion (formula + adduct): [C43H76NO8P+H] 1+) as the molecule, how does the “TIMS collisional cross section” value (sample type: HeLa) read?
Answer: 282.3 Å²

Question: For `CC/C=C\C/C=C\C/C=C\C/C=C\C/C=C\C/C=C\CCC(=O)O[C@H](COC(=O)CCCCCCCCCCCCCC)COP(=O)([O-])OCC[N+](C)(C)C` [PC 15:0@_22:6] (ion (formula + adduct): [C45H78NO8P+H] 1+), which “TIMS collisional cross section” value (sample type: plasma) is on record?
Answer: 288.2 Å²

Question: Which “TIMS collisional cross section” value (sample type: HeLa) does the source give for `CCCCCCCCCCCCCCCC(=O)O[C@H](COC(=O)CCCCCCCCCCCCCC)COP(=O)([O-])OCC[N+](C)(C)C` [PC 15:0_16:0] (ion (formula + adduct): [C39H78NO8P+H] 1+) here?
Answer: 282.1 Å²

Question: Which “TIMS collisional cross section” value (sample type: HeLa) does the source give for `CCCCCC/C=C\CCCCCCCC(=O)O[C@H](COC(=O)CCCCCCCCCCCCCC)COP(=O)([O-])OCC[N+](C)(C)C` [PC 15:0_16:1] (ion (formula + adduct): [C39H76NO8P+H] 1+) here?
Answer: 278.9 Å²
